Measured values: ChEMBL document CHEMBL1201862, “PubChem BioAssay data set” (2004)
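Growth conditions: 96-well plates. Treatment: test compound, 48 hours, 5 concentrations. Analysis: linear interpolation between bracketing concentrations; unreached endpoints set to highest concentration. GI50: concentration for 50% inhibition of growth.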 Active and inactive are the calls of the source. Rule as the data show it: active = GI50 up to about 1.1 µM and inactive = higher.

Key:
Experiment in all cases: NCI tumour cell line growth inhibition, 48 h
NCI-H23 = tested on: NCI-H23
Malme-3M = tested on: Malme-3M
PC-3 = tested on: PC-3
SF-268 = tested on: SF-268
HCC 2998 = tested on: HCC 2998
SF-295 = tested on: SF-295
786-0 = tested on: 786-0
HOP-62 = tested on: HOP-62
OVCAR-4 = tested on: OVCAR-4
EKVX = tested on: EKVX
OVCAR-5 = tested on: OVCAR-5
COLO 205 = tested on: COLO 205
HL-60 = tested on: HL-60
CCRF-CEM = tested on: CCRF-CEM
M14 = tested on: M14
NCI-H460 = tested on: NCI-H460
SR = tested on: SR
RXF 393 = tested on: RXF 393

Row | Structure (SMILES) | GI50 (NCI-H23) | GI50 (Malme-3M) | GI50 (PC-3) | GI50 (SF-268) | GI50 (HCC 2998) | GI50 (SF-295) | GI50 (786-0) | GI50 (HOP-62) | GI50 (OVCAR-4) | GI50 (EKVX) | GI50 (OVCAR-5) | GI50 (COLO 205) | GI50 (HL-60) | GI50 (CCRF-CEM) | GI50 (M14) | GI50 (NCI-H460) | GI50 (SR) | GI50 (RXF 393)
1 | O=C(NNCc1ccc(Cl)cc1)Nc1cccc2ccccc12 | > 100 µM (inactive) | > 100 µM (inactive) | > 100 µM (inactive) | 93.1 µM (inactive) | > 100 µM (inactive) | 82 µM (inactive) | 51.6 µM (inactive) | 48.2 µM (inactive) | > 100 µM (inactive) | > 100 µM (inactive) | 94.6 µM (inactive) | > 100 µM (inactive) | > 100 µM (inactive) | > 100 µM (inactive) | > 100 µM (inactive) | 41.5 µM (inactive) | > 100 µM (inactive) | > 100 µM (inactive)
2 | O=[N+]([O-])C(=C1NCCN1)C(Cl)=C(Cl)Cl | > 100 µM (inactive) | > 100 µM (inactive) | > 100 µM (inactive) | > 100 µM (inactive) | > 100 µM (inactive) | > 100 µM (inactive) | > 100 µM (inactive) | > 100 µM (inactive) | > 100 µM (inactive) | > 100 µM (inactive) | > 100 µM (inactive) | > 100 µM (inactive) | 62.2 µM (inactive) | 52.6 µM (inactive) | > 100 µM (inactive) | > 100 µM (inactive) | > 100 µM (inactive) | > 100 µM (inactive)
3 | NCCCN1c2ccccc2Sc2ccc(Cl)cc21 | > 10 µM (inactive) | 6.97 µM (inactive) | 4.17 µM (inactive) | 8.17 µM (inactive) | 2.12 µM (inactive) | > 5.83 µM (inactive) | 3.24 µM (inactive) | > 10 µM (inactive) | > 10 µM (inactive) | > 7.36 µM (inactive) | > 5.28 µM (inactive) | 1.81 µM (inactive) | 9.98 µM (inactive) | 3.19 µM (inactive) | 1.73 µM (inactive) | 3.33 µM (inactive) | 2.18 µM (inactive) | > 7.28 µM (inactive)
4 | COc1cc(/C=C/c2sc3ccccc3[n+]2C)ccc1N(C)C | 11.5 µM (inactive) | 2.49 µM (inactive) | 3.24 µM (inactive) | 13.8 µM (inactive) | 21.8 µM (inactive) | 47.4 µM (inactive) | 12.2 µM (inactive) | 17.9 µM (inactive) | 1.33 µM (inactive) | 21.8 µM (inactive) | 20.3 µM (inactive) | 1.29 µM (inactive) | 6.85 µM (inactive) | 2.06 µM (inactive) | 13.4 µM (inactive) | 6.11 µM (inactive) | 1.94 µM (inactive) | 16.6 µM (inactive)
5 | Cc1c(C)c(C)n(C2OC(CO)C(O)C(O)C2O)c(=S)c1C#N (configuration not stated) | > 100 µM (inactive) | > 100 µM (inactive) | > 100 µM (inactive) | > 100 µM (inactive) | > 100 µM (inactive) | > 100 µM (inactive) | > 100 µM (inactive) | > 100 µM (inactive) | > 100 µM (inactive) | > 100 µM (inactive) | > 100 µM (inactive) | > 100 µM (inactive) | > 100 µM (inactive) | > 100 µM (inactive) | > 100 µM (inactive) | > 100 µM (inactive) | > 100 µM (inactive) | > 100 µM (inactive)
6 | O=C(/C=C/c1cccc(Br)c1)N1CCN(CCOC(c2ccccc2)c2ccccc2)CC1 | 42 µM (inactive) | 36.4 µM (inactive) | 44.1 µM (inactive) | > 100 µM (inactive) | 46.6 µM (inactive) | 53.7 µM (inactive) | 40.1 µM (inactive) | > 100 µM (inactive) | 63.2 µM (inactive) | > 100 µM (inactive) | > 100 µM (inactive) | 17.5 µM (inactive) | 17.4 µM (inactive) | 17.1 µM (inactive) | 62.2 µM (inactive) | 31.8 µM (inactive) | 16.1 µM (inactive) | 35.7 µM (inactive)
7 | CC(C)(C)N1C=[N+](C(C)(C)C)CC1 | > 100 µM (inactive) | > 100 µM (inactive) | > 100 µM (inactive) | > 100 µM (inactive) | > 100 µM (inactive) | > 100 µM (inactive) | > 100 µM (inactive) | > 100 µM (inactive) | > 100 µM (inactive) | > 100 µM (inactive) | > 100 µM (inactive) | > 100 µM (inactive) | > 100 µM (inactive) | > 100 µM (inactive) | > 100 µM (inactive) | > 100 µM (inactive) | > 100 µM (inactive) | > 100 µM (inactive)
8 | Cc1ccc(-c2cc(N)n(-c3nc4c([nH]3)c(=O)n(C)c(=O)n4C)n2)cc1 | 8.95 µM (inactive) | 3.86 µM (inactive) | 16.3 µM (inactive) | 3.59 µM (inactive) | 7.67 µM (inactive) | 2.69 µM (inactive) | 2.08 µM (inactive) | 3.28 µM (inactive) | 4.01 µM (inactive) | 3.09 µM (inactive) | 8.05 µM (inactive) | 3.62 µM (inactive) | 5.04 µM (inactive) | 2.64 µM (inactive) | 4.32 µM (inactive) | 1.71 µM (inactive) | 2.43 µM (inactive) | 17.6 µM (inactive)
9 | COc1cc2c3c(c1)CCCN3CCC2 | > 10 µM (inactive) | > 10 µM (inactive) | > 10 µM (inactive) | > 10 µM (inactive) | > 10 µM (inactive) | > 10 µM (inactive) | > 10 µM (inactive) | > 10 µM (inactive) | > 10 µM (inactive) | > 10 µM (inactive) | – | > 10 µM (inactive) | > 10 µM (inactive) | > 10 µM (inactive) | > 10 µM (inactive) | > 10 µM (inactive) | > 10 µM (inactive) | > 10 µM (inactive)
10 | Cc1cnc2[nH]c(-c3ccccc3)cc(=O)c2c1 | 0.0741 µM (active) | 0.017 µM (active) | 0.0161 µM (active) | 0.0697 µM (active) | 0.0372 µM (active) | 0.0545 µM (active) | 0.043 µM (active) | 1.21 µM (inactive) | 1.35 µM (inactive) | 0.716 µM (active) | 3.07 µM (inactive) | 0.0193 µM (active) | < 0.01 µM (active) | 0.0159 µM (active) | 0.0213 µM (active) | 0.0259 µM (active) | < 0.01 µM (active) | 0.0154 µM (active)
11 | C=CCN1C[C@H](C)N([C@@H](c2ccc(C(=O)N3CCCCC3)cc2)c2cccc(OC)c2)C[C@H]1C | 42.4 µM (inactive) | 18.5 µM (inactive) | 21.9 µM (inactive) | 52.7 µM (inactive) | 31.6 µM (inactive) | 45.2 µM (inactive) | 37.9 µM (inactive) | > 100 µM (inactive) | 56.4 µM (inactive) | 44.4 µM (inactive) | 58.1 µM (inactive) | 16.6 µM (inactive) | 1.35 µM (inactive) | 21.5 µM (inactive) | 17.4 µM (inactive) | 31 µM (inactive) | 16.1 µM (inactive) | 48 µM (inactive)
